The values below come from PubChem BioAssay AID434987 (Southern Research Specialized Biocontainment Screening …, 2010).

As a reminder, the IC50 is the concentration that inhibits the measured activity by half. The IC90 is the concentration needed for an effect of 90%. Low values mean greater potency, high ones weaker potency.

The source made the active and inactive calls. How the calls were made is not given here.

The subject of this assay is M. tuberculosis H37Rv growth inhibition with meropenem. The assay can be described thus: dose response, H37Rv, with and without meropenem (AID 434987).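 Further: growth over 7 days at 37 °C before Alamar Blue read on day 9.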
[1] abbreviates: M. tuberculosis H37Rv growth inhibition, measured here: IC50 without meropenem.
Where [2] appears, read: M. tuberculosis H37Rv growth inhibition, measured here: IC90 without meropenem.
Setting [3] is: measured here: IC90 with meropenem.

On to `O=C(NCc1ccc2c(c1)OCO2)C(=O)NC1CCCCC1`, for which the IC50 is > 100 µM (inactive). Under setting [1], this molecule showed a half-inhibitory concentration (IC50) above 100 µM. The molecule also came in with a 90% effect concentration (IC90) under setting [2] above 100 µM. Besides, the concentration for an effect of 90% (IC90) under setting [3] was above 100 µM.
For `O=C(O)C1CC(=O)N(c2ccc(OCc3ccccc3Cl)cc2)C1` (stereo not drawn), the half-inhibitory concentration (IC50) is 14.2 µM. Further, the IC50 under setting [1] came out at 41.6 µM. Moreover, the IC90 under setting [2] was above 100 µM. Also, under setting [3], the IC90 is above 100 µM.
For `Cc1nn(C)c(C(=O)NC(=S)Nc2ccccc2Br)c1Cl`, the IC50 is > 100 µM (inactive). The same molecule came in with a half-inhibitory concentration (IC50) under setting [1] above 100 µM. The molecule further showed a 90% effect concentration (IC90) under setting [2] above 100 µM. The same molecule showed an IC90 under setting [3] above 100 µM.
For the molecule `Cc1ccc(-c2cc(C(=O)N/N=C/C=C/c3ccccc3)n[nH]2)o1`, the IC50 is > 100 µM (inactive). In addition, under setting [1], the IC50 was above 100 µM. Besides, under setting [2], the IC90 was above 100 µM. Further, the IC90 under setting [3] is above 100 µM.
Turning to `CC(C)CN(C(=O)CN1CCN(S(=O)(=O)c2ccccc2)CC1)c1c(N)n(CC(C)C)c(=O)[nH]c1=O`, the IC50 is > 100 µM (inactive). This molecule returned an IC50 under setting [1] above 100 µM. This molecule yielded an IC90 under setting [2] above 100 µM. Also, the IC90 under setting [3] is above 100 µM.
For `Cc1sc2nc(C(C)Nc3ccccc3N3CCOCC3)[nH]c(=O)c2c1C` (stereo not drawn), the IC50 is > 100 µM (inactive). This molecule yielded an IC50 under setting [1] above 100 µM. Under setting [2], the concentration for an effect of 90% (IC90) is above 100 µM. Further, under setting [3], the concentration for an effect of 90% (IC90) was above 100 µM.
`COc1cc(-c2nc(S(=O)(=O)c3ccc(C)cc3)c(N3CCOCC3)o2)cc(OC)c1OC`: the IC50 was > 100 µM (inactive). For the same molecule, the IC50 under setting [1] was above 100 µM. Besides, the 90% effect concentration (IC90) under setting [2] is above 100 µM. The concentration for an effect of 90% (IC90) under setting [3] was above 100 µM.
In the case of `CC(/C=N/NC(=O)c1cc(-c2cccs2)[nH]n1)=C\c1ccccc1`, the IC50 is > 100 µM (inactive). The half-maximal inhibitory concentration (IC50) under setting [1] was above 100 µM. This molecule also had a 90% effect concentration (IC90) under setting [2] above 100 µM. Besides, the 90% effect concentration (IC90) under setting [3] was above 100 µM.
With `COc1ccc2ccccc2c1/C=N/NC(=O)c1cccc(Br)c1`, the IC50 is > 100 µM (inactive). The IC50 under setting [1] is above 100 µM. In addition, under setting [2], the IC90 is above 100 µM. The same molecule displayed an IC90 under setting [3] above 100 µM.
Take `CC(=O)NC(=S)Nc1ccc(NC(=O)c2cccs2)cc1`: the IC50 is 48.7 µM (inactive). The molecule also registered an IC50 under setting [1] above 100 µM. The IC90 under setting [2] is above 100 µM. The concentration for an effect of 90% (IC90) under setting [3] is above 100 µM.
Turning to `c1ccc2nc(-c3nc4ccccc4o3)ccc2c1`, the IC50 is 43.9 µM (inactive). The IC50 under setting [1] was above 100 µM. Further, the concentration for an effect of 90% (IC90) under setting [2] is above 100 µM. This molecule gave an IC90 under setting [3] above 50 µM.
Consider `CC1=NN(c2ccccc2)C(=O)C1C=Nc1ccccc1O` (stereo not drawn), for which the IC50 was > 100 µM (inactive). Under setting [1], this molecule had an IC50 above 100 µM. Under setting [2], this molecule returned an IC90 above 100 µM. For the same molecule, the 90% effect concentration (IC90) under setting [3] was above 100 µM.
Consider `CCNC(=S)N/N=C1\C(=O)c2cccc3cccc1c23`, for which the IC50 was 5.46 µM. Also, the 50% inhibitory concentration (IC50) under setting [1] was above 100 µM. The molecule further showed an IC90 under setting [2] above 100 µM. Under setting [3], the IC90 stood at 7.61 µM.
Regarding `CC(C)N1CCc2c(sc(NC(=O)c3cc(-c4cccs4)nc4ccccc34)c2C(N)=O)C1`, the IC50 was 13.7 µM (inactive). This molecule yielded an IC50 under setting [1] of 24.8 µM. Also, the concentration for an effect of 90% (IC90) under setting [2] was above 100 µM. Also, under setting [3], the IC90 was above 100 µM.
On to `Cc1ccc(C)c(S(=O)(=O)N2CCN(CC(=O)NC(C)c3ccccc3)CC2)c1` (stereo not drawn), for which the IC50 was 98 µM (inactive). Also, the IC50 under setting [1] is 99.7 µM. Further, under setting [2], the 90% effect concentration (IC90) was above 100 µM. This molecule also had a concentration for an effect of 90% (IC90) under setting [3] above 100 µM.
Turning to `CCOCC(=O)Nc1ccc(F)c(F)c1`, the IC50 is 81.2 µM (inactive). Besides, under setting [1], the IC50 amounted to 94.5 µM. Also, the IC90 under setting [2] was above 100 µM. This molecule also had a 90% effect concentration (IC90) under setting [3] above 100 µM.
As for `C#C[C@]1(O)CC[C@H]2[C@@H]3CCC4=C(CCC(=O)C4)[C@H]3CC[C@@]21C`, the IC50 is > 100 µM (inactive). The molecule further gave an IC50 under setting [1] above 100 µM. Moreover, the IC90 under setting [2] is above 100 µM. Besides, under setting [3], the 90% effect concentration (IC90) is above 100 µM.
